From patent publication US20220119354A1, “DIAMINO-SUBSTITUTED PYRIDINES AND PYRIMIDINES AS HERBICIDES” (FMC Corporation, priority 2019, published 2022)

Key:
Assay type in all cases: in vivo
[1] = system: ragweed (common ragweed, Ambrosia elatior); assay: Test A preemergence, ragweed; details: 0 to 100 scale, 0 is no effect, 100 is complete control
In short: (§1)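 Ratings reflect visual comparison with untreated controls roughly 10 d after greenhouse application, 0 meaning no effect and 100 complete control. Treatment was by directed soil spray at planting or by spray onto one- to two-leaf plants in loam/sand pots.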

[2] = system: sedge, umbrella (small-flower umbrella sedge, Cyperus difformis); assay: Test B flooded paddy test, umbrella sedge; details: Flood, 250 g ai/ha, applied to paddy water, 2-leaf stage, visual evaluation after 13 to 15 d
In short: (§2)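 Pots flooded to 3 cm above the soil when treated, with test compound added straight to the water and the flood maintained. Treated plants were at the 2-leaf stage and stayed 13–15 d in greenhouse. Response versus untreated controls scored visually from 0 (no effect) to 100 (complete control).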

[3] = system: barnyardgrass (Echinochloa crus-galli); assay: Test A postemergence, barnyardgrass; details: 0 to 100 scale, 0 no effect, 100 complete control
In short: as §1

[4] = system: ragweed (common ragweed, Ambrosia elatior); assay: Test A postemergence, ragweed; details: 0 to 100 scale, 0 no effect, 100 complete control
In short: as §1

kochia (Kochia scoparia) [5] = assay: Test A postemergence, kochia; details: 0 to 100 scale, 0 no effect, 100 complete control
In short: as §1

[6] = system: ryegrass, Italian (Lolium multiflorum); assay: Test A preemergence, Italian ryegrass; details: 0 to 100 scale, 0 is no effect, 100 is complete control
In short: as §1

[7] = system: foxtail, giant (Setaria faberii); assay: Test A preemergence, giant foxtail; details: 0 to 100 scale, 0 is no effect, 100 is complete control
In short: as §1

rice (Oryza sativa) = assay: Test B flooded paddy test, rice; details: Flood, 250 g ai/ha, applied to paddy water, 2-leaf stage, visual evaluation after 13 to 15 d
In short: as §2

[8] = system: barnyardgrass (Echinochloa crus-galli); assay: Test B flooded paddy test, barnyardgrass; details: Flood, 250 g ai/ha, applied to paddy water, 2-leaf stage, visual evaluation after 13 to 15 d
In short: as §2

[9] = system: pigweed (Amaranthus retroflexus); assay: Test A preemergence, pigweed; details: 0 to 100 scale, 0 is no effect, 100 is complete control
In short: as §1

kochia (Kochia scoparia) [10] = assay: Test A preemergence, kochia; details: 0 to 100 scale, 0 is no effect, 100 is complete control
In short: as §1

[11] = system: wheat (Triticum aestivum); assay: Test A postemergence, wheat; details: 0 to 100 scale, 0 no effect, 100 complete control
In short: as §1

[12] = system: ryegrass, Italian (Lolium multiflorum); assay: Test A postemergence, Italian ryegrass; details: 0 to 100 scale, 0 no effect, 100 complete control
In short: as §1

[13] = system: blackgrass (Alopecurus myosuroides); assay: Test A postemergence, blackgrass; details: 0 to 100 scale, 0 no effect, 100 complete control
In short: as §1

corn (Zea mays) = assay: Test A postemergence, corn; details: 0 to 100 scale, 0 no effect, 100 complete control
In short: as §1

[14] = system: pigweed (Amaranthus retroflexus); assay: Test A postemergence, pigweed; details: 0 to 100 scale, 0 no effect, 100 complete control
In short: as §1

[15] = system: galium (catchweed bedstraw, Galium aparine); assay: Test A postemergence, galium; details: 0 to 100 scale, 0 no effect, 100 complete control
In short: as §1

[16] = system: foxtail, giant (Setaria faberii); assay: Test A postemergence, giant foxtail; details: 0 to 100 scale, 0 no effect, 100 complete control
In short: as §1

[17] = system: barnyardgrass (Echinochloa crus-galli); assay: Test A preemergence, barnyardgrass; details: 0 to 100 scale, 0 is no effect, 100 is complete control
In short: as §1

[18] = system: ducksalad (Heteranthera limosa); assay: Test B flooded paddy test, ducksalad; details: Flood, 250 g ai/ha, applied to paddy water, 2-leaf stage, visual evaluation after 13 to 15 d
In short: as §2

Row | SMILES | Ragweed plant response rating ([1]; 125 g ai/ha) | Ragweed plant response rating ([1]; 500 g ai/ha) | Plant response rating, Sedge, Umbrella (0 to 100 scale, 0 is no effect, 100 is complete control) [2] | Plant response rating, Barnyardgrass ([3]; 125 g ai/ha) | Plant response rating, Barnyardgrass ([3]; 500 g ai/ha) | Plant response rating, Ragweed ([4]; 125 g ai/ha) | Plant response rating, Ragweed ([4]; 500 g ai/ha) | Plant response rating, Kochia (kochia (Kochia scoparia) [5]; 125 g ai/ha) | Plant response rating, Kochia (kochia (Kochia scoparia) [5]; 500 g ai/ha) | Ryegrass, Italian plant response rating ([6]; 125 g ai/ha) | Ryegrass, Italian plant response rating ([6]; 500 g ai/ha) | Foxtail, Giant plant response rating ([7]; 125 g ai/ha) | Foxtail, Giant plant response rating ([7]; 500 g ai/ha) | Plant response rating, Rice (0 to 100 scale, 0 is no effect, 100 is complete control) (rice (Oryza sativa)) | Plant response rating, Barnyardgrass (0 to 100 scale, 0 is no effect, 100 is complete control) [8] | Pigweed plant response rating ([9]; 125 g ai/ha) | Pigweed plant response rating ([9]; 500 g ai/ha) | Kochia plant response rating (kochia (Kochia scoparia) [10]; 125 g ai/ha) | Kochia plant response rating (kochia (Kochia scoparia) [10]; 500 g ai/ha) | Plant response rating, Wheat ([11]; 125 g ai/ha) | also measured
1 | CC(Nc1nc(N)c(C(F)(F)F)c(C(F)(F)F)n1)c1coc2ccccc12 (stereo not drawn) [Compound 87] | 0 | 0 | 0 | 0 | 0 | 0 | 20 | 0 | 30 | 0 | 0 | 0 | 0 | 0 | 0 | 0 | 10 | 0 | 0 | 0 | Plant response rating, Wheat ([11]; 500 g ai/ha): 0; Plant response rating, Ryegrass, Italian ([12]; 125 g ai/ha): 0; Plant response rating, Ryegrass, Italian ([12]; 500 g ai/ha): 0; Plant response rating, Blackgrass ([13]; 125 g ai/ha): 0; Plant response rating, Blackgrass ([13]; 500 g ai/ha): 0; Plant response rating, Corn (corn (Zea mays); 125 g ai/ha): 0; Plant response rating, Corn (corn (Zea mays); 500 g ai/ha): 0; Plant response rating, Pigweed ([14]; 125 g ai/ha): 0; Plant response rating, Pigweed ([14]; 500 g ai/ha): 60; Plant response rating, Galium ([15]; 125 g ai/ha): 0; Plant response rating, Galium ([15]; 500 g ai/ha): 0; Plant response rating, Foxtail, Giant ([16]; 125 g ai/ha): 0; Plant response rating, Foxtail, Giant ([16]; 500 g ai/ha): 0; Barnyardgrass plant response rating ([17]; 125 g ai/ha): 0; Barnyardgrass plant response rating ([17]; 500 g ai/ha): 0; Plant response rating, Ducksalad (0 to 100 scale, 0 is no effect, 100 is complete control) [18]: 0
2 | Nc1nc(NC(c2cc3ccccc3o2)C2CC2)ncc1C(F)(F)F (stereo not drawn) [Compound 88] | 80 | 100 | 95 | 10 | 90 | 30 | 90 | 90 | 90 | 50 | 100 | 90 | 100 | 0 | 80 | 100 | 100 | 70 | 100 | 0 | Plant response rating, Wheat ([11]; 500 g ai/ha): 0; Plant response rating, Ryegrass, Italian ([12]; 125 g ai/ha): 50; Plant response rating, Ryegrass, Italian ([12]; 500 g ai/ha): 60; Plant response rating, Blackgrass ([13]; 125 g ai/ha): 50; Plant response rating, Blackgrass ([13]; 500 g ai/ha): 50; Plant response rating, Corn (corn (Zea mays); 125 g ai/ha): 20; Plant response rating, Corn (corn (Zea mays); 500 g ai/ha): 30; Plant response rating, Pigweed ([14]; 125 g ai/ha): 100; Plant response rating, Pigweed ([14]; 500 g ai/ha): 100; Plant response rating, Galium ([15]; 125 g ai/ha): 90; Plant response rating, Galium ([15]; 500 g ai/ha): 90; Plant response rating, Foxtail, Giant ([16]; 125 g ai/ha): 30; Plant response rating, Foxtail, Giant ([16]; 500 g ai/ha): 90; Barnyardgrass plant response rating ([17]; 125 g ai/ha): 70; Barnyardgrass plant response rating ([17]; 500 g ai/ha): 90; Plant response rating, Ducksalad (0 to 100 scale, 0 is no effect, 100 is complete control) [18]: 65
